Key:
PPARg [1] = assay: PPARg transactivation assay in human dermal primary fibroblasts; assay type: cell-based; settings: 6 h treatment, FIG. 2
Description: FIG. 2. PPARg Transactivation Assays in Human Dermal Primary Fibroblasts.

3NP-lesioned mice = assay: Huntington's disease 3NP model, behavioral score; assay type: in vivo, C57BL/6 mice; settings: 10 mg/kg i.p., four injections, FIG. 9
Method: Mice were subjected to behavioral tests for determining their neurological status after the treatment with compounds I (10 mg/kg) (A), III (10 mg/kg) (B) and XII (10 mg/kg) (C). Hind limb clasping, Locomotor activity, Hind limb dystonia and Truncal Dystonia were rated from 0 to 2 based on severity: a score of 0 typically indicates normal function and 2 seriously affected. Values are expressed as means±SEM for 8 animals per group.
Lesions of the striatum were induced with 3-NP in adult (16 week old; 30 g) male C57BL/6 mice (Harlan Ibérica, Barcelona, Spain). To this end, mice were subjected to seven intraperitoneal (i.p.) injections of 3NP (one injection each 12 hours) at a dose of 50 mg/kg (prepared in phosphate-buffered saline) for 3 days. These animals and their respective non-lesioned controls were used for pharmacological studies with compounds CBG-Q (compound I) and with compounds III and XII (FIG. 9). At least 6-8 animals were used per experimental group. Treatments consisted of four i.p. injections of the compounds at the indicated doses (one injection each 24 hours), or vehicle (DMSO 0.2%, BSA 5% in PBS) 30 min before the injections of 3NP. All animals were euthanized 12 hours after the last 3NP injection. Once euthanized, animals were dissected and their brains were rapidly removed. The right hemisphere was used to dissect the striatum, which was quickly frozen in RNAlater (Sigma-Aldrich, Germany) to analyzed inflammatory markers were by Real Time PCR. The left hemisphere was fixed in fresh 4% paraformaldehyde (in 0.1M phosphate buffered-saline) for 48 hours at 4° C. and embedded in paraffin wax for histological analysis. Mice were subjected to behavioral tests for determining their neurological status. We evaluated the general locomotor activity, the hindlimb clasping and dystonia, and the truncal dystonia. All behavioral tests were conducted prior to drug injections to avoid acute effects of the compounds under investigation.

[2] = tested on: COX-2, iNOS, TNFα and IL-6; assay: 3NP model, inflammatory marker mRNAs in the striatum (real-time PCR); assay type: in vivo, C57BL/6 mice; settings: 3NP-treated mice, 10 mg/kg, FIG. 10 and FIG. 11
Method: Gene expression of inflammatory markers including COX-2, TNFα, IL-6 and iNOS, was down regulated in 3NP+compound III (10 mg/kg) treated mice compared with 3NP+Vehicle mice. Expression levels were calculated using the 2^−ΔΔct method. Values are expressed as means±SEM for 6 animals per group.
Gene expression of inflammatory markers including COX-2, TNFα, IL-6 and iNOS, was down regulated in 3NP+XII (10 mg/kg) treated mice compared with 3NP+Vehicle mice. Expression levels were calculated using the 2^−ΔΔct method. Values are expressed as means±SEM for 6 animals per group.
Lesions of the striatum were induced with 3-NP in adult (16 week old; 30 g) male C57BL/6 mice (Harlan Ibérica, Barcelona, Spain). […] The right hemisphere was used to dissect the striatum, which was quickly frozen in RNAlater (Sigma-Aldrich, Germany) to analyzed inflammatory markers were by Real Time PCR. […] We evaluated the general locomotor activity, the hindlimb clasping and dystonia, and the truncal dystonia. […]
Total RNA was isolated from striata (3NP model) or spinal cord (EAE model) using RNeasy Lipid Tissue Mini Kit (Qiagen, GmbH). The total amount of RNA extracted was quantitated by spectrometry at 260 nm and its purity from the ratio between the absorbance values at 260 and 280 nm. […] Expression levels were calculated using the 2^−ΔΔct method.

6-OHDA-lesioned mice = assay: Parkinson's disease 6-OHDA model, rotarod and actimeter; assay type: in vivo, C57BL/6 mice; settings: 6-OHDA mice, chronic intraperitoneal treatment 10 mg/ml, 14 days, FIG. 13
Method: C57BL/6 mice were unilaterally injected intracerebroventricullarly with 6-hydroxydopamine (6-OHDA) or saline (control mice) and subjected to chronic intraperitoneal treatment with compound III (10 mg/ml) or vehicle (14 days), starting 16 h after the 6-OHDA injection. Motor coordination was evaluated by rotarod performance and motor activity was evaluated using a computer-aided actimeter. Values are expressed as means±SEM for 6 animals per group.
C57BL/6 mice pretreated intracerebroventricularly (i.c.v.) were anesthetized with an intraperitoneal (i.p.) injection of 200 mg′kg of 2,2,2-tribromoethanol (Sigma-Aldrich) and placed in a stereotaxic frame with a mouse adapter (David Kopf Instruments, Tujunga, Calif., USA). […] Motor coordination was evaluated in the rotarod test (Ugo Basile, Rome, Italy) at crescent speed. […] The latency to fall off the rod was measured on consecutive days in lesioned mice following the compound III administration or vehicle control. Motor activity (ambulatory activity, mean velocity, resting time, fast movements and number of rearings) was evaluated using a computer-aided actimeter (FIG. 13).

PPARg [3] = tested on: PPARg
PPARg [4] = assay: PPARg transactivation assay in HEK-293 cells (GAL4-PPARγ / GAL4-luc); settings: HEK-293 cells, 6 h treatment, FIG. 1

Structure (SMILES): CCCCCC1=C(NCC)C(=O)C(C/C=C(\C)CCC=C(C)C)=C(O)C1=O [Compound III, 6-(3,7-dimethyl-octa-2,6-dienyl)-5-hydroxy-3-pentyl-2-ethylamino-[1,4]benzoquinone]
- PPARg activation (fold) compared with CBG-Q (PPARg [1]): higher efficiency than CBG-Q
- clinical symptoms induced by 3-NP intoxication (hind limb clasping, locomotor activity, hind limb dystonia, truncal dystonia) (3NP-lesioned mice): clearly alleviates such symptomatology
- up-regulation of pro-inflammatory markers COX-2, iNOS, TNFα and IL-6 in the striatum [2]: attenuated the up-regulation
- motor symptoms (ambulatory activity, mean velocity, resting time, fast movement, number of rearing, rotarod performance) (6-OHDA-lesioned mice): almost completely suppressed
- PPARg transactivation (luciferase activity, fold induction over untreated cells) (PPARg [3]): most active compounds
- PPARg activation (fold) compared with CBG-Q (PPARg [4]): higher efficiency than CBG-Q

Reference: patent US9802880B2, “Cannabigerol derivatives” (VIVACELL BIOTECHNOLOGY ESPAÑA S.L., priority 2014, dated 2017)
